target: T1, Aromatase (Homo sapiens, UniProt P11511); experiment: Competitive inhibition of aromatase in human microsomes using [1beta-3H]androstenedione as substrate after 5 mins by Lineweaver-Burk plot analysis; parameters: species or system Microsome; details: not given
T1 sequence (P11511 whole entry): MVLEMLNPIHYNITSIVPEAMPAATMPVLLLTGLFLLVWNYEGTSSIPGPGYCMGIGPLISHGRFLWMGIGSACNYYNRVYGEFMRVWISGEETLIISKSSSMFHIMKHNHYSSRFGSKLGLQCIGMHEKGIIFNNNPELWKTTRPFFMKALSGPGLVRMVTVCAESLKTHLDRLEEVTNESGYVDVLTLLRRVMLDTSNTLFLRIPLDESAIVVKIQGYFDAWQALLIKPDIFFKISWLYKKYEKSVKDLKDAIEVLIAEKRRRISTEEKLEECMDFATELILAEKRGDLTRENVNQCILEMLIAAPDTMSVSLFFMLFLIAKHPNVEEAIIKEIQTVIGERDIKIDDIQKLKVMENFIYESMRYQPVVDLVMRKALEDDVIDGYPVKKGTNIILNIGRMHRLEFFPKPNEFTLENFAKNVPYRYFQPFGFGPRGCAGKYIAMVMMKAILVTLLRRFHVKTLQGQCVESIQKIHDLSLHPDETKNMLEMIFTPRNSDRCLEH

Structure (SMILES)	inhibition (INH)
C[C@]12CC=CC[C@@H]1CC[C@@H]1[C@@H]2CC[C@]2(C)C(=O)CC[C@@H]12	Active
C[C@]12CC[C@H]3O[C@H]3[C@@H]1CC[C@@H]1[C@@H]2CC[C@]2(C)C(=O)CC[C@@H]12	Active
C[C@]12CC[C@H](O)C=C1CC[C@@H]1[C@@H]2CC[C@]2(C)C(=O)CC[C@@H]12	Active
C[C@]12CC[C@H]3[C@@H](CC[C@@]45O[C@@H]4CCC[C@]35C)[C@@H]1CCC2=O	Active
C[C@]12CCC=C[C@@H]1CC[C@@H]1[C@@H]2CC[C@]2(C)C(=O)CC[C@@H]12	Active

target: T1, Aromatase; experiment: Inhibition of aromatase in human microsomes using [1beta-3H]androstenedione as substrate after 5 mins by Dixon plot analysis; parameters: species or system Microsome; details: read-out: Ki(app)

Structure (SMILES)	Ki [nM]
C[C@]12CC=CC[C@@H]1CC[C@@H]1[C@@H]2CC[C@]2(C)C(=O)CC[C@@H]12	9500
C[C@]12CC[C@H]3[C@@H](CC[C@@]45O[C@@H]4CCC[C@]35C)[C@@H]1CCC2=O	86
C[C@]12CCC=C[C@@H]1CC[C@@H]1[C@@H]2CC[C@]2(C)C(=O)CC[C@@H]12	50

target: T1, Aromatase; details: 0.25 h, read-out: INH
Description: Inhibition of aromatase in human placental microsomes using [1beta-3H]androstenedione as substrate at 2 uM after 15 mins by liquid scintillation counting

Structure (SMILES)	inhibition at 2 µM [%]
CC(=O)O[C@H]1CC[C@H]2[C@@H]3CCC4=C[C@@H](O)CC[C@]4(C)[C@H]3CC[C@]12C	4.6
C[C@]12CCCC=C1CC[C@@H]1[C@@H]2CC[C@]2(C)C(=O)CC[C@@H]12	97.8
C[C@]12CC=CC[C@@H]1CC[C@@H]1[C@@H]2CC[C@]2(C)C(=O)CC[C@@H]12	72
CC(=O)OC1=CCC[C@@]2(C)[C@H]1CC[C@@H]1[C@@H]2CC[C@]2(C)C(=O)CC[C@@H]12	33.9
C[C@]12C[C@H]3O[C@H]3C[C@@H]1CC[C@@H]1[C@@H]2CC[C@]2(C)C(=O)CC[C@@H]12	70.7
C[C@]12C=CCC[C@@H]1CC[C@@H]1[C@@H]2CC[C@]2(C)C(=O)CC[C@@H]12	56
C[C@]12CC[C@H](O)C=C1CC[C@@H]1[C@@H]2CC[C@]2(C)C(=O)CC[C@@H]12	93.1
C[C@]12CC[C@@H](O)C=C1CC[C@@H]1[C@@H]2CC[C@]2(C)C(=O)CC[C@@H]12	60.8
C[C@]12CCC=C[C@@H]1CC[C@@H]1[C@@H]2CC[C@]2(C)C(=S)CC[C@@H]12	41.5
C[C@]12CC[C@H]3[C@@H](CC[C@@]45O[C@@H]4CCC[C@]35C)[C@@H]1CCC2=O	84.6
C[C@]12[C@@H](CC[C@@H]3[C@@H]1CC[C@]1(C)C(=O)CC[C@@H]31)CC[C@@H]1O[C@@H]12	40
CC(=O)Oc1ccccc1C(=O)OC1=C2CC[C@@H]3[C@H](CC[C@]4(C)C(=O)CC[C@@H]34)[C@@]2(C)CCC1=O	68.7

target: T1, Aromatase; experiment: Inhibition of aromatase in human placental microsomes using [1beta-3H]androstenedione as substrate after 15 mins by liquid scintillation counting; parameters: species or system Placenta; details: not given

Structure (SMILES)	IC50 [nM]
C[C@]12CC=CC[C@@H]1CC[C@@H]1[C@@H]2CC[C@]2(C)C(=O)CC[C@@H]12	1730
C[C@]12C[C@H]3O[C@H]3C[C@@H]1CC[C@@H]1[C@@H]2CC[C@]2(C)C(=O)CC[C@@H]12	1150
C[C@]12CC[C@H]3[C@@H](CC[C@@]45O[C@@H]4CCC[C@]35C)[C@@H]1CCC2=O	970
